Data on two compounds can be found in patent US7307085B2, “Mitotic kinesin inhibitors” (Merck & Co., Inc., priority 2003, dated 2007).

The test concerns the target T1, human KSP motor domain (KSP(367H)) (Homo sapiens, UniProt P52732).
T1 construct: were used to amplify the motor domain and the neck linker region; made in house; host or cells: E. coli BL21 (DE3)
T1 sequence (P52732 18-359 limits assumed): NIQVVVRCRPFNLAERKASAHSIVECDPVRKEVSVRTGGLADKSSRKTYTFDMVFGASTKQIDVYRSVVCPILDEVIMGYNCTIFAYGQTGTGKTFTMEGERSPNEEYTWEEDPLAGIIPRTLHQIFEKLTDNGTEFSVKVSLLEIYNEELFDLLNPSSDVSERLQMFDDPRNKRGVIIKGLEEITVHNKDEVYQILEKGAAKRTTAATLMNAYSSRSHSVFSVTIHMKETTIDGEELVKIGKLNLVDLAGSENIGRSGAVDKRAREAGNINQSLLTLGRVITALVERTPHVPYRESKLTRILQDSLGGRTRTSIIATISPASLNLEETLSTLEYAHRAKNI
Briefly: Kinesin ATPase In Vitro Assay. The class given is biochemical. As to conditions: human poly-histidine tagged KSP motor domain with microtubules, 1 mM ATP, 23° C. From the text:
I. Kinesin ATPase In Vitro Assay
Cloning and Expression of Human Poly-Histidine Tagged KSP Motor Domain_(KSP(367H))
Plasmids for the expression of the human KSP motor domain construct were cloned by PCR using a pBluescript full length human KSP construct (Blangy et al., Cell, vol. 83, pp 1159-1169, 1995) as a template. The N-terminal primer 5′-[…] (SEQ.ID.NO.: 1) and the C-terminal primer 5′-[…] […]lCAGGCTTATTCAATAT (SEQ.D.NO.: 2) were used to amplify the motor domain and the neck linker region. The PCR products were digested with AseI and XhoI, ligated into the NdeI/XhoI digestion product of pRSETa (Invitrogen) and transformed into E. coli BL21 (DE3).
Cells were grown at 37° C. to an OD600 of 0.5. […]
The kinesin motor domain is incubated with microtubules, 1 mM ATP (1:1 MgCl2: Na-ATP), and compound at 23° C. in buffer containing 80 mM K-HEPES (pH 7.0), 1 mM EGTA, 1 mM DTT, 1 mM MgCl2, and 50 mM KCl. […] Free phosphate from the ATP hydrolysis reaction is measured via a quinaldine redlammonium molybdate assay by adding a […] volume of quench C (e.g., to a mixture of 40 μl reaction volume+40 μl stop buffer is then added 120 μl quench C). […] Quench C is a 2:1 ratio of quench A:quench B The reaction is incubated for 5-10 minutes at 23° C., and the absorbance of the phospho-molybdate complex is measured at 540 nm.

For orientation: IC50 means the point on the concentration scale where inhibition reaches its midpoint. A lower IC50 goes with inhibition by little substance. Regarding `O=C1CC[C@@H]2C=C(c3cc(F)ccc3F)C[C@@H](c3ccccc3)N12` [1-6, (+)-(5S,8aR)-7-(2,5-difluorophenyl)-5-phenyl-1,5,6,8a-tetrahydroindolizin-3(2H)-one], the IC50 was at most 50 µM.
In turn, `O=C1CC[C@@H]2CC(c3cc(F)ccc3F)=C[C@@H](c3ccccc3)N12` [1-5, (−)-(5S,8aR)-7-(2,5-difluorophenyl)-5-phenyl-1,5,8,8a-tetrahydroindolizin-3(2H)-one] yielded an IC50 of at most 50 µM.
